These results are taken from US11590116B2 (THERAVANCE BIOPHARMA R&D IP, LLC, priority 2019, dated 2023).

The target of experiment [1] is T1, recombinant human ALK5 (TGF-βR1) protein (Homo sapiens, UniProt P36897).
T1 construct: purchased Life Technologies PR9075A
T1 sequence (P36897 34-503): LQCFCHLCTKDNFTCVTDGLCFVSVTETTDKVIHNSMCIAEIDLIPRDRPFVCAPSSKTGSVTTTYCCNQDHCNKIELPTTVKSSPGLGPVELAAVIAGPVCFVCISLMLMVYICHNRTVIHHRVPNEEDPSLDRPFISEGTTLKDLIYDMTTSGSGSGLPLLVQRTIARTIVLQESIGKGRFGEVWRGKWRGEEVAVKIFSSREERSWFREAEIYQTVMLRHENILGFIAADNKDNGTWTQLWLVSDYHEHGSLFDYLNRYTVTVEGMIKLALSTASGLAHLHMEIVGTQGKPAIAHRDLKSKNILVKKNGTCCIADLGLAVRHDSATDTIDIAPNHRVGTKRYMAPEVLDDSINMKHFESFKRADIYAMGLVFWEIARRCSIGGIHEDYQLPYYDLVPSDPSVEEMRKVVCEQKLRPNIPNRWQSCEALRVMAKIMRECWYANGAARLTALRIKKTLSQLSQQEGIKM
In words: Biochemical ALK5 (TGF-βR1) assay to measure pKi (LANCE Ultra ULight kinase assay). Particulars: apparent pKi from pIC50 by Cheng-Prusoff, read-out: ALK5 pKi (converted). Summed up: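 After a 60 min room-temperature preincubation of ALK5 with compound, phosphorylation proceeds 60 min at 37 °C on ATP addition (125 μM as 5× stock). Detection: Eu-labelled phospho-Thr1342 Topo IIα antibody in EDTA buffer, pH 7.0; emission 665 nm.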
A general note: TR-FRET usually uses a lanthanide donor and a delayed reading to cut background.

In experiment [2] the test system is TGF-β-stimulated SMAD3 phosphorylation in BEAS-2B cells. Description: Cellular ALK5 potency assay, inhibition of TGF-β stimulated pSMAD3 formation in BEAS-2B cells. The format is cell-based. The conditions noted are these: Homo sapiens; inhibition of TGF-β stimulated pSMAD3 formation, BEAS-2B cells; read-out: BEAS2B pIC50 (converted). The procedure, abridged: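 BEAS-2B human lung epithelial cells pre-treated 1 h at 37° C with compound in HBSS/25 mM HEPES/1% BSA, then stimulated 30 min with 10 ng/mL TGF-β (final). Lysates assayed for pSMAD3 by AlphaLISA; pIC50 from dose-dependent change versus stimulated untreated cells.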

Some results are limits rather than exact numbers.

Take `CC(=O)N[C@@H]1CC=C(c2cnc3ccc(-c4nc[nH]c4-c4cccc(C)n4)cc3c2)CC1` [Compound 380, N-[(1S)-4-[6-[5-(6-methyl-2-pyridyl)-1H-imidazol-4-yl]-3-quinolyl]cyclohex-3-en-1-yl]acetamide]: the Ki in experiment [1] is below 0.0316 nM. Besides, the IC50 in experiment [2] was below 20 nM.

On to `Cc1cccc(-c2[nH]cnc2-c2ccc3ncc(-c4cccc(NC5CCNCC5)c4)cc3c2)n1` [Compound 686, N-[3-[6-[5-(6-methyl-2-pyridyl)-1H-imidazol-4-yl]-3-quinolyl]phenyl]piperidin-4-amine], for which the Ki in experiment [1] is below 0.0316 nM. Besides, in experiment [2], the IC50 was 25.1 to 158 nM.

As for `Cc1cccc(-c2[nH]ncc2-c2ccc3ncc(C(=O)O[C@H]4CCN(C)C4)cc3n2)n1` [Compound 563, [(3S)-1-methylpyrrolidin-3-yl]6-[5-(6-methyl-2-pyridyl)-1H-pyrazol-4-yl]-1,5-naphthyridine-3-carboxylate], in experiment [1], the Ki was 0.0398 to 0.316 nM. In addition, in experiment [2], the IC50 was 25.1 to 158 nM.

Take `Cc1cccc(-c2[nH]cnc2-c2ccc3ncc(NCCN4CC5(CCCNC5)C4)cc3c2)n1` [Compound 733, N-[2-(2,8-diazaspiro[3.5]nonan-2-yl)ethyl]-6-[5-(6-methyl-2-pyridyl)-1H-imidazol-4-yl]quinolin-3-amine]: the Ki in experiment [1] was 0.0398 to 0.316 nM. In addition, in experiment [2], the IC50 is 200 to 1260 nM.

With `Cc1cccc(-c2[nH]cnc2-c2ccc3ncc(-c4ccc(C(=O)O[C@@H]5CCNC5)nc4)cc3c2)n1` [Compound 1110, [(3R)-pyrrolidin-3-yl] 5-[6-[5-(6-methyl-2-pyridyl)-1H-imidazol-4-yl]-3-quinolyl]pyridine-2-carboxylate], the Ki in experiment [1] is 0.0398 to 0.316 nM. For the same compound, in experiment [2], the IC50 was 200 to 1260 nM.

`Cc1cccc(-c2[nH]cnc2-c2ccc3ncc(-c4ccc(C(=O)O[C@@H]5CCNC5)cc4)cc3c2)n1` [Compound 716, [(3R)-pyrrolidin-3-yl] 4-[6-[5-(6-methyl-2-pyridyl)-1H-imidazol-4-yl]-3-quinolyl]benzoate]: the Ki in experiment [1] is 0.0398 to 0.316 nM. Moreover, in experiment [2], the IC50 is 25.1 to 158 nM.

For the compound `Cc1cccc(-c2[nH]cnc2-c2ccc3ncc(-c4nc(C(=O)OC5CCNCC5)cs4)cc3c2)n1` [Compound 742, 4-piperidyl 2-[6-[5-(6-methyl-2-pyridyl)-1H-imidazol-4-yl]-3-quinolyl]thiazole-4-carboxylate], in experiment [1], the Ki was 0.0398 to 0.316 nM. For the same compound, the IC50 in experiment [2] is 25.1 to 158 nM.

On to `Cc1cccc(-c2[nH]cnc2-c2ccc3ncc(C(=O)O[C@@H]4CCCNC4)cc3c2)n1` [Compound 781, [(3R)-3-piperidyl] 6-[5-(6-methyl-2-pyridyl)-1H-imidazol-4-yl]quinoline-3-carboxylate], for which the Ki in experiment [1] is 0.398 to 3.16 nM. For the same compound, the IC50 in experiment [2] was 25.1 to 158 nM.

For `Cc1cccc(-c2n[nH]cc2-c2ccc3ncc(NCCN4CCN(C(C)C)CC4)cc3n2)n1` [Compound 478, N-[2-(4-isopropylpiperazin-1-yl)ethyl]-6-[3-(6-methyl-2-pyridyl)-1H-pyrazol-4-yl]-1,5-naphthyridin-3-amine], the Ki in experiment [1] was below 0.0316 nM. In experiment [2], the IC50 was 25.1 to 158 nM.

Turning to `Cc1cccc(-c2n[nH]cc2-c2ccc3ncc(CCC(=O)O)cc3n2)n1` [Compound 63, 3-[6-[3-(6-methyl-2-pyridyl)-1H-pyrazol-4-yl]-1,5-naphthyridin-3-yl]propanoic acid], in experiment [1], the Ki was 3.98 to 31.6 nM. Further, the IC50 in experiment [2] was 1580 to 10000 nM.

For `Cc1cccc(-c2[nH]cnc2-c2ccc3ncc(C(=O)O[C@H]4CCCC[C@@H]4N)cc3c2)n1` [Compound 879, (1S,2S)-2-aminocyclohexyl 6-(5-(6-methylpyridin-2-yl)-1H-imidazol-4-yl)quinoline-3-carboxylate], in experiment [1], the Ki was 3.98 to 31.6 nM. Besides, the IC50 in experiment [2] is 25.1 to 158 nM.

Regarding `Cc1cccc(-c2n[nH]cc2-c2ccc3nccc(N(C)C)c3n2)n1` [Compound 837, N,N-dimethyl-6-[3-(6-methyl-2-pyridyl)-1H-pyrazol-4-yl]-1,5-naphthyridin-4-amine], the Ki in experiment [1] was 0.0398 to 0.316 nM. The IC50 in experiment [2] is 25.1 to 158 nM.

For the compound `COC(=O)c1cnc2ccc(-c3cn[nH]c3-c3cccc(C)n3)nc2c1` [Compound 53, methyl 6-[5-(6-methyl-2-pyridyl)-1H-pyrazol-4-yl]-1,5-naphthyridine-3-carboxylate], the Ki in experiment [1] was 0.0398 to 0.316 nM. Moreover, the IC50 in experiment [2] is 25.1 to 158 nM.

As to `Cc1cccc(-c2[nH]cnc2-c2ccc3ncc(-c4ccc(C(=O)OC[C@@H]5CCCN5)cn4)cc3c2)n1` [Compound 1163, [(2S)-pyrrolidin-2-yl]methyl 6-[6-[5-(6-methyl-2-pyridyl)-1H-imidazol-4-yl]-3-quinolyl]pyridine-3-carboxylate], the Ki in experiment [1] is 0.0398 to 0.316 nM. Moreover, the IC50 in experiment [2] is 25.1 to 158 nM.

As to `Cc1cccc(-c2[nH]cnc2-c2ccc3ncc(NCCC4CCCNC4)cc3c2)n1` (stereo not drawn) [Compound 222, 6-[5-(6-methyl-2-pyridyl)-1H-imidazol-4-yl]-N-[2-(3-piperidyl)ethyl]quinolin-3-amine], in experiment [1], the Ki was 0.0398 to 0.316 nM. The IC50 in experiment [2] is 25.1 to 158 nM.

As for `CNC1CCCN(c2cnc3ccc(-c4c[nH]nc4-c4cccc(C)n4)nc3c2)C1` (stereo not drawn) [Compound 606, N-methyl-1-[6-[3-(6-methyl-2-pyridyl)-1H-pyrazol-4-yl]-1,5-naphthyridin-3-yl]piperidin-3-amine], the Ki in experiment [1] was 0.0398 to 0.316 nM. The IC50 in experiment [2] is 25.1 to 158 nM.

Turning to `Cc1nc(-c2n[nH]cc2-c2ccc3ncc(-c4cnn5c4NCCC5)cc3n2)ccc1F` [Compound 1, 2-[3-(5-fluoro-6-methyl-2-pyridyl)-1H-pyrazol-4-yl]-7-(4,5,6,7-tetrahydropyrazolo[1,5-a]pyrimidin-3-yl)-1,5-naphthyridine], the Ki in experiment [1] is below 0.0316 nM. Besides, in experiment [2], the IC50 is 25.1 to 158 nM.

For the compound `Cc1cccc(-c2[nH]cnc2-c2ccc3ncc(C4=CCC(C(=O)O)CC4)cc3c2)n1` (stereo not drawn) [Compound 461, 4-[6-[5-(6-methyl-2-pyridyl)-1H-imidazol-4-yl]-3-quinolyl]cyclohex-3-ene-1-carboxylic acid], the Ki in experiment [1] was 0.0398 to 0.316 nM. Also, in experiment [2], the IC50 was 25.1 to 158 nM.

As to `Cc1cccc(-c2[nH]ncc2-c2ccc3nccc(C(=O)OCC4CCNCC4)c3c2)n1` [Compound 1225, 4-piperidylmethyl 6-[5-(6-methyl-2-pyridyl)-1H-pyrazol-4-yl]quinoline-4-carboxylate], in experiment [1], the Ki is 0.0398 to 0.316 nM. Besides, the IC50 in experiment [2] is 25.1 to 158 nM.

Turning to `Cc1cccc(-c2[nH]cnc2-c2ccc3ncc(-c4csc(C(=O)OCC5CNC5)c4)cc3c2)n1` [Compound 753, azetidin-3-ylmethyl 4-(6-(5-(6-methylpyridin-2-yl)-1H-imidazol-4-yl)quinolin-3-yl)thiophene-2-carboxylate], the Ki in experiment [1] is 0.0398 to 0.316 nM. Further, the IC50 in experiment [2] is 25.1 to 158 nM.

As to `Cc1cccc(-c2[nH]ncc2-c2ccc3ncc(-c4nnco4)cc3n2)n1` [Compound 677, 2-[6-[5-(6-methyl-2-pyridyl)-1H-pyrazol-4-yl]-1,5-naphthyridin-3-yl]-1,3,4-oxadiazole], the Ki in experiment [1] is 0.0398 to 0.316 nM. The IC50 in experiment [2] was 25.1 to 158 nM.

With `Cc1cccc(-c2n[nH]cc2-c2ccc3ncc(-c4c(C)noc4C)cc3n2)n1` [Compound 243, 3,5-dimethyl-4-[6-[3-(6-methyl-2-pyridyl)-1H-pyrazol-4-yl]-1,5-naphthyridin-3-yl]isoxazole], the Ki in experiment [1] is 0.398 to 3.16 nM. Also, the IC50 in experiment [2] was 25.1 to 158 nM.

As for `Cc1cccc(-c2[nH]ncc2-c2ccc3ncc(C(=O)OC4CCN(C)C4)cc3n2)n1` (stereo not drawn) [Compound 523, (1-methylpyrrolidin-3-yl) 6-[5-(6-methyl-2-pyridyl)-1H-pyrazol-4-yl]-1,5-naphthyridine-3-carboxylate], in experiment [1], the Ki is 0.0398 to 0.316 nM. The IC50 in experiment [2] was 25.1 to 158 nM.

Turning to `Cc1cccc(-c2[nH]cnc2-c2ccc3ncc(N4CCNCC4)cc3c2)n1` [Compound 412, 6-[5-(6-methyl-2-pyridyl)-1H-imidazol-4-yl]-3-piperazin-1-yl-quinoline], in experiment [1], the Ki is 0.0398 to 0.316 nM. Further, in experiment [2], the IC50 was below 20 nM.

In the case of `Cc1cccc(-c2[nH]cnc2-c2ccc3ncc(C(=O)OCCCN4C[C@@H](C)N[C@@H](C)C4)cc3c2)n1` [Compound 898, 3-((3S,5R)-3,5-dimethylpiperazin-1-yl)propyl 6-(5-(6-methylpyridin-2-yl)-1H-imidazol-4-yl)quinoline-3-carboxylate], the Ki in experiment [1] was 0.0398 to 0.316 nM. Besides, in experiment [2], the IC50 was 25.1 to 158 nM.

Turning to `Cc1cc(-c2cnc3ccc(-c4c[nH]nc4-c4cccc(C)n4)nc3c2)ccn1` [Compound 454, 7-(2-methyl-4-pyridyl)-2-[3-(6-methyl-2-pyridyl)-1H-pyrazol-4-yl]-1,5-naphthyridine], the Ki in experiment [1] is below 0.0316 nM. For the same compound, the IC50 in experiment [2] was below 20 nM.

In the case of `Cc1cccc(-c2[nH]cnc2-c2ccc3ncc(C(=O)OC[C@H]4CCC[C@H](N)C4)cc3c2)n1` (racemic) [Compound 769, [rac-(1S,3S)-3-aminocyclohexyl]methyl 6-[5-(6-methyl-2-pyridyl)-1H-imidazol-4-yl]quinoline-3-carboxylate], in experiment [1], the Ki is 0.0398 to 0.316 nM. The IC50 in experiment [2] was 25.1 to 158 nM.
